Results taken from patent US6866837B2, “Radiolabeled peptides for the diagnosis and treatment of breast and prostate tumors and metastases of such tumors” (Mallinckrodt Inc., priority 1998, dated 2005).
Where two headings read alike, the source gives them in different places.

Tests used:
7315b cells = details: read-out: agonistic activities on bombesin stimulated prolactin secretion, IC50
[1] = for 2 h after labeling with IN-111 up to 100 Mbq per jj. g; HPLC
[2] = rats
[3] = tested on: bombesin receptor positive prolactinoma 7315b; details: female Lewis rats; visualized by scintigraphy
in vivo = details: rat, total radioactivity
[4] = rats; cited from earlier work
[5] = Dynamic gamma camera: clearance and excretion of radioactivity; details: rat, in vivo
bombesin receptors = experiment: Receptor autoradiography of human tumor tissue sections with the radioligand; format: binding
Experimental: Various tumor tissue samples, including surrounding tissue, were harvested from human patients and/or human cadavers, and frozen. The samples were cut on a cryostat, mounted on microscope slides, and then stored at −20° C. for […] improve adhesion of the tissue to the slide. The slide-mounted tissue sections were allowed to reach room temperature and preincubated in 50 mmol/1 Tris-HCl, 130 mmol/1 NaCl, 4.7 mmol/1 KCl, 5 mmol/I MgCl2, 1 mmol/l ethylene glycol-bi (b-aminoethylether)-N, N, N′, N′-tetraacetic acid, and 0.5% bovine serum albumin, pH 7.4 (preincubation solution), for 30 min. at 25° C. The slides are then incubated in a solution containing the same medium as the preincubation solution except the bovine serum albumin is omitted, and the following compounds are added: 20000 dpm/100 ml of the radioligand of Example 1, 0.025% bacitracin, 1 mmol/l dithiothreitol, 2 mg/ml chymostatin, and 4 mg/ml leupeptin, pH=6.5. The slides are incubated at room temperature with the radioligand for 150 min., as described by Mantyh et al. (Gasteroenterology, 1994, 107, 1019-30). After the incubation, the slides are rinsed with four washes of 30 sec each in ice-cold preincubation solution, pH 7.4, dipped in ice-cold water, and then quickly dried in a refrigerator under a stream of cold air. The sections are subsequently exposed to a ^3H Ultrofilm for 1 week, to detect the precise location of the radioactivity.
The films were evaluated to determine the ability to distinguish the tumor from the surrounding tissue.

[6] = Breat Cancer Metastases, 5 samples
[7] = Non Small Cell Lung Carcinoma, 34 samples
[8] = Prostate Cancer Metastases, 5 samples
[9] = Small Cell Lung Carcinoma, 10 samples
[10] = Uterus Leomyosarcoma Tumor, 3 samples
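Throughout, for Tissue RA, Pancreas: radiolabelled ligand targeting bombesin receptors, given by intravenous injection at varied injected mass.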
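Throughout, for ratio vs. blood, Adrenal: radiolabelled ligand targeting bombesin receptors, given by intravenous injection at varied injected mass.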
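Throughout, for ratio vs. blood, Colon: radiolabelled ligand targeting bombesin receptors, given by intravenous injection at varied injected mass.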
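Throughout, for uptake in pancreas and tissues of the GI tract: radiolabelled ligand targeting bombesin receptors, given by intravenous injection at varied injected mass.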

CSCC[C@H](NC(=O)[C@H](CC(C)C)NC(=O)[C@H](Cc1c[nH]cn1)NC(=O)CNC(=O)[C@@H](NC(=O)[C@H](C)NC(=O)[C@H](Cc1c[nH]c2ccccc12)NC(=O)[C@H](CCC(N)=O)NC(=O)[C@H](CC(N)=O)NC(=O)CNC(=O)[C@H](Cc1ccc(O)cc1)NC(=O)[C@H](CCCNC(=N)N)NC(=O)[C@H](CCC(N)=O)NC(=O)[C@@H]1CCCN1C(=O)CN(CCN(CCN(CC(=O)O)CC(=O)O)CC(=O)O)CC(=O)O)C(C)C)C(N)=O [[^111In-DTPA^0, Pro^1, Tyr^4] bombesin, metal not drawn]
IC50 (7315b cells): 8 nM
radiochemically stable [1]: > 95%
uptake in pancreas and tissues of the GI tract [2]: high and specific uptake
Tissue RA, Pancreas ([2]; 48 h after injection, 0.01 μg): 1.0 % ID/g
ratio vs. blood, Adrenal ([2]; 48 h after injection, 0.01 μg): 34
ratio vs. blood, Colon ([2]; 48 h after injection, 0.01 μg): 85
ratio vs. blood, Pancreas ([2]; 48 h after injection, 0.01 μg): 1210
ratio vs. blood, Stomach ([2]; 48 h after injection, 0.01 μg): 40
ratio vs. blood, Adrenal ([2]; 48 h after injection, 0.025 μg): 30
ratio vs. blood, Colon ([2]; 48 h after injection, 0.025 μg): 64
ratio vs. blood, Pancreas ([2]; 48 h after injection, 0.025 μg): 1217
ratio vs. blood, Stomach ([2]; 48 h after injection, 0.025 μg): 64
ratio vs. blood, Adrenal ([2]; 48 h after injection, 0.1 μg): 26
ratio vs. blood, Colon ([2]; 48 h after injection, 0.1 μg): 73
ratio vs. blood, Pancreas ([2]; 48 h after injection, 0.1 μg): 856
ratio vs. blood, Stomach ([2]; 48 h after injection, 0.1 μg): 50
ratio vs. blood, Adrenal ([2]; 48 h after injection, 0.5 μg): 18
ratio vs. blood, Colon ([2]; 48 h after injection, 0.5 μg): 52
ratio vs. blood, Pancreas ([2]; 48 h after injection, 0.5 μg): 574
ratio vs. blood, Stomach ([2]; 48 h after injection, 0.5 μg): 50
clearance of radioactivity from the blood compartment (dynamic gamma camera): rapid clearance
urinary excretion (in 1 h): 35%
urinary excretion (in 20 h): 70%
uptake in bombesin receptor positive prolactinoma 7315b [3]: Specific uptake
tissue uptake at 48 h (in vivo; adrenal, 0.01 ug): 0.029 %ID/g
tissue uptake at 48 h (in vivo; adrenal, 0.025 ug): 0.03 %ID/g
tissue uptake at 48 h (in vivo; adrenal, 0.1 ug): 0.022 %ID/g
tissue uptake at 48 h (in vivo; adrenal, 0.5 ug): 0.014 %ID/g
tissue uptake at 48 h (in vivo; blood, 0.01 ug): 0.0009 %ID/g
tissue uptake at 48 h (in vivo; blood, 0.025 ug): 0.001 %ID/g
tissue uptake at 48 h (in vivo; blood, 0.5 ug): 0.0008 %ID/g
tissue uptake at 48 h (in vivo; blood, iv, 0.1 ug): 0.0009 %ID/g
tissue uptake at 48 h (in vivo; bombesin receptor positive tissues): 0.025 %ID/g
tissue uptake at 48 h (in vivo; colon, 0.01 ug): 0.072 %ID/g
tissue uptake at 48 h (in vivo; colon, 0.025 ug): 0.063 %ID/g
tissue uptake at 48 h (in vivo; colon, 0.1 ug): 0.061 %ID/g
tissue uptake at 48 h (in vivo; colon, 0.5 ug): 0.036 %ID/g
tissue uptake at 48 h (in vivo; pancreas, 0.025 ug): 1.2 %ID/g
tissue uptake at 48 h (in vivo; pancreas, 0.1 ug): 0.72 %ID/g
tissue uptake at 48 h (in vivo; pancreas, 0.5 ug): 0.43 %ID/g
tissue uptake at 48 h (in vivo; stomach, 0.01 ug): 0.035 %ID/g
tissue uptake at 48 h (in vivo; stomach, 0.025 ug): 0.065 %ID/g
tissue uptake at 48 h (in vivo; stomach, 0.1 ug): 0.042 %ID/g
tissue uptake at 48 h (in vivo; stomach, 0.5 ug): 0.036 %ID/g
uptake in the pancreas and tissues of the GI-tract [4]: high and specific uptake
total body retention [5]: 10%

pGlu-Gln-Arg-Tyr-Gly-Asn-Gln-Trp-Ala-Val-Gly-His-Leu-Met-NH2 [[^125I-Tyr^4] bombesin]
% Positive (bombesin receptors; Breast Cancer, 95 samples): 69%
Number Positive (bombesin receptors; Breast Cancer, 95 samples): 66
% Positive (bombesin receptors; [6]): 100%
Number Positive (bombesin receptors; [6]): 5
% Positive (bombesin receptors; Colon Cancer, 18 samples): 6%
Number Positive (bombesin receptors; Colon Cancer, 18 samples): 1
% Positive (bombesin receptors; Gastric Cancer, 27 samples): 0%
Number Positive (bombesin receptors; Gastric Cancer, 27 samples): 0
% Positive (bombesin receptors; Gastrinomas, 4 samples): 100%
Number Positive (bombesin receptors; Gastrinomas, 4 samples): 4
% Positive (bombesin receptors; Glioblastomas, 4 samples): 100%
Number Positive (bombesin receptors; Glioblastomas, 4 samples): 4
% Positive (bombesin receptors; Melanomas, 8 samples): 12%
Number Positive (bombesin receptors; Melanomas, 8 samples): 1
% Positive (bombesin receptors; [7]): 0%
Number Positive (bombesin receptors; [7]): 0
% Positive (bombesin receptors; Pancreatic Cancer, 28 samples): 0%
Number Positive (bombesin receptors; Pancreatic Cancer, 28 samples): 0
% Positive (bombesin receptors; [8]): 100%
Number Positive (bombesin receptors; [8]): 5
% Positive (bombesin receptors; Prostate Cancer, 28 samples): 100%
Number Positive (bombesin receptors; Prostate Cancer, 28 samples): 28
% Positive (bombesin receptors; [9]): 20%
Number Positive (bombesin receptors; [9]): 2
% Positive (bombesin receptors; [10]): 33%
Number Positive (bombesin receptors; [10]): 1
